The results in this text go back to US12691151B2, “Methods and compositions for improving oncolytic virus infection for nonpermissive cancers” (Arizona Board of Regents on behalf of Arizona State …, priority 2019, dated 2026).

“Also recorded” adds a separate entry of the source.

Type in all cases: cell-based, human
For test [1], the system named is HT29 cells.
Test [2] concerns PANC-1 cells.
Test [3] concerns MDA-MB-435 cells.
In test [4] the test system is HT29 cells. The source holds these as a separate data set.
Test [5] relates to PANC-1 cells. The source holds these as a separate data set.
Test [6] concerns MDA-MB-435 cells. The source holds these as a separate data set.
Another test deals with A549 cell line. Nature of the test: MYXV replication in the permissive A549 cell line.
For test [7], the system named is PANC-1 cells. This is another data set of the same source.

As to `CCC(=C/[C@H](C)C/C=C/C(C)=C/[C@@H](C)C(=O)[C@@H](C)[C@H](O)[C@@H](C)C/C(C)=C/C(=O)O)/C=C/[C@@H]1OC(=O)C=C[C@@H]1C` [Leptomycin B], the “GFP (early/late) and TdTomato (late) expression” value in the test on HT29 cells [1] is “enhanced MYXV early (GFP) and late (TdTomato) gene expression levels”; in the test with PANC-1 cells [2] it was “enhanced GFP (early/late) and TdTomato (late) expression; also recorded: enhanced MYXV gene expression”; in the test with MDA-MB-435 cells [3] it was “enhanced GFP (early/late) and TdTomato (late) expression; also recorded: enhanced MYXV gene expression”. Besides, the formation of foci result in the test on HT29 cells [1], with PANC-1 cells [2] and in the test on MDA-MB-435 cells [3] was “allowed formation of small foci” each time. Moreover, the “viral replication (virus titer)” value in the test on HT29 cells [4] was “enhanced viral replication; also recorded: enhanced MYXV replication”; in the test on PANC-1 cells [5] it was “enhanced MYXV gene expression and replication”; in the test on MDA-MB-435 cells [6], “enhanced MYXV gene expression and replication”. In addition, the viral replication result in the test on A549 cell line was “only increased viral replication at an MOI of 0.1 or lower”. The “cell viability (ATP), Leptomycin B pretreatment plus MYXV” value in the test with PANC-1 cells [7] is recorded as “further reduced the viability; also recorded: reduced cell viability”. Moreover, the “cell viability (ATP)” value in the test on PANC-1 cells [7] (40 h) is reported as “sensitive to Leptomycin B treatment alone”.
